The structures appear in SMILES notation. In brackets after ≈: the same amount, converted by molar mass. Read-outs that look alike come from different tables or passages of the source.

Series [1] in a line: Stability test in acidic hydrochloric acid solution (pH 2), residual ratio by HPLC. Format: physicochemical. The settings on record: for Residual ratio at pH 2: pH 2 HCl, 37° C.; for Stability in acid (residual ratio at pH = 2: %): Table 8 summary, time not stated. The procedure: A test for the stability of thioether compounds (hereinafter, referred to SH-form) and sulfoxide compounds (hereinafter, referred to SO-form) at pH 2.0 was carried out. (Method) Each of the specimens produced in Examples 1 to 3 and Reference Examples 6 to 8 (sulfinyl products of Examples 1 to 3) was maintained in a solution adjusted to pH 2 with 0.5 or 1.0 mmol/L HCl (37° C.) for a predetermined time period. Subsequently, the solution was adjusted to pH 8 with triethylamine, and then an HPLC analysis was performed to calculate the residual ratio.

The test system of series [2] is Helicobacter pylori standard strain ATCC 43504. Nature of the series: Antibacterial potency test (MIC), Columbia agar medium, Pharmacological Test Example 1. Format: cell-based. The procedure: A test was conducted to see whether there is a difference in the anti-Helicobacter pylori activity depending on the number of carbon atoms of the linear alkyl group for a substituent at the 4-position of the pyridine ring.
For the bacterium Helicobacter pylori, a standard strain ATCC 43504 was used to perform in vitro tests in Columbia agar medium. Each of the specimens was dissolved in a 1% DMSO solution, and the bacteria were cultured at 37° C. and pH 7.0 for 3 days. On the 4th day, the minimum growth inhibitory concentration (MIC, μg/ml) was determined.

The subject of series [3] is Helicobacter pylori bacteria (ATCC 43504). Nature of the series: Antiulcer action and bacteria eradicating action in Helicobacter pylori-infected Mongolian gerbils. Format: in vivo. The settings on record: for Number of Bacteria (average) (log CFU): gastric mucosa. The procedure: Mongolian gerbils were experimentally infected with Helicobacter pylori bacteria, and the antiulcer action and the Helicobacter pylori bacteria eradicating action of the compounds of the present invention were tested.
Male Mongolian gerbils (30 to 40 g), five animals in each group, were orally inoculated with Helicobacter pylori bacteria (ATCC 43504) at 1.6×10^7 CFU/0.5 ml/mouse, and bred for one week, and then drug was administered two times a day for two weeks. Thereafter, the […] were bred for three weeks, and then the rats were fasted for 18 hours and subjected to abdominal section, followed by autopsy. The severity of gastric ulcer, the number of Helicobacter pylori bacteria in the gastric mucosa, and the antibody titer were measured.

Series [4] deals with gastric acid secretion. Nature of the series: Gastric acid secretion inhibiting action, pylorus ligation in rats. Particulars: 30 mg/kg to the duodenum, 4 hours after pylorus ligation, average. It is filed as in vivo, SD rats. The procedure: The gastric acid secretion inhibiting action of the compounds of the present invention was tested. A group of five animals of male SD rats (about 200 g) were used, and the medicaments were respectively dissolved in 0.5% CMC and were all administered to the duodenum respectively at 30 mg/kg. The rats were fasted overnight from the day before the administration of the test substance to the point of administration, and pylorus ligation was performed.

Series [5] has as its system Helicobacter pylori standard strains ATCC 43504, ATCC 43629, ATCC 43570 and clinically separated strains. Nature of the series: Anti-Helicobacter pylori activity (MIC), standard and clinically separated strains, Pharmacological Test Example 2. Format: cell-based. The procedure:
For the bacterium Helicobacter pylori, standard strains ATCC 43504, ATCC 43629 and ATCC 43570 were used to perform in vitro tests in Columbia agar medium. The bacteria were cultured at 37° C. and pH 7.0 for 3 days. On the 4th day, the minimum growth inhibitory concentration (MIC, μg/ml) was determined. Each of the specimens was dissolved in a 1% DMSO solution. Furthermore, amoxicillin and clarithromycin were used as control drugs of antibacterial substance. Further, the compound described in the article of Thomas C. Kuehler (J. Med.

Where [6] appears, read: ATCC43504, 72 h, ATCC 43504, 37° C., pH 7.0, 3 days, read-out: MIC.
[7] abbreviates: ATCC43504, Table 8 summary, strain not stated, read-out: Anti-HP activity (MIC: μg/mL).
[8] abbreviates: Helicobacter pylori, ATCC43504, Table 8, amount of administration (mg) 30, read-out: HP eradication based on Mongolian gerbil infection model: Eradication rate (%).
Where [9] appears, read: Clinically separated strain PT1045482.
[10] abbreviates: Clinically separated strain PT1045483.
[11] abbreviates: Clinically separated strain PT1045484.
Where [12] appears, read: 30 mg/kg, two times a day for two weeks.
Where [13] appears, read: Helicobacter pylori, ATCC43504, 336 h, 30 mg/kg, two times a day for two weeks, read-out: Eradication rate (%).

Regarding `CCCCCOc1ccnc(C[S+]([O-])c2nc3ccccc3[nH]2)c1C` (racemic) [Reference Example 6, (±)-2-[(4-n-pentyloxy-3-methylpyridin-2-yl)-methylsulfinyl]-1H-benzimidazole], the entries for the “Residual ratio at pH 2” value in series [1] (0 min), in series [1] (30 min) and in series [1] (2 hours) were 100%, 0% and 0%, respectively. The “Stability in acid (residual ratio at pH = 2: %)” value in series [1] turned out to be 0%. Also, the MIC in series [2] (setting [6]) and in series [2] (setting [7]) was 3 µg/mL (≈ 8.39 µM) each time. In addition, the responders at 30 mg/kg in series [3] (setting [8]) came out at 0%.
As for `CCCCCCOc1ccnc(C[S+]([O-])c2nc3ccccc3[nH]2)c1C` (racemic) [Reference Example 7, (±)-2-[(4-n-hexyloxy-3-methylpyridin-2-yl)-methylsulfinyl]-1H-benzimidazole], the “Residual ratio at pH 2” value in series [1] (0 min) came to 100%; in series [1] (30 min) it was 0%; in series [1] (2 hours), 0%. Also, in series [1], the “Stability in acid (residual ratio at pH = 2: %)” value is 0%. The MIC in series [2] (setting [6]) and in series [2] (setting [7]) was 3 µg/mL (≈ 8.08 µM) throughout. Besides, the responders at 30 mg/kg in series [3] (setting [8]) stood at 0%.
With `CCCCCCCOc1ccnc(C[S+]([O-])c2nc3ccccc3[nH]2)c1C` (racemic) [Reference Example 8, (±)-2-[(4-n-heptyloxy-3-methylpyridin-2-yl)-methylsulfinyl]-1H-benzimidazole], the results for the “Residual ratio at pH 2” value in series [1] (0 min), in series [1] (30 min) and in series [1] (2 hours) were 100%, 0% and 0%, respectively. For the same compound, the “Stability in acid (residual ratio at pH = 2: %)” value in series [1] worked out at 0%. Besides, the MIC in series [2] (setting [6]) and in series [2] (setting [7]) was 3 µg/mL (≈ 7.78 µM) in each case. In series [3] (setting [8]), the responders at 30 mg/kg was found to be 0%.
As for `CN/C(=N/CCSCc1nc[nH]c1C)NC#N` [Cimetidine], in series [4], the “Gastric acid secretion inhibiting action: Amount of gastric acid” value worked out at 54%, the “Gastric acid secretion inhibiting action: Amount of gastric acid secretion” value was 74% and the “Gastric acid secretion inhibiting action: Total acidity” value amounted to 41%.
Regarding `Cc1c(OCC(C)C)ccnc1CSc1nc2ccccc2[nH]1` [Comparative Example 1, 2-[(4-isobutoxy-3-methylpyridin-2-yl)methylthio]-1H-benzimidazole], the MIC in series [5] (setting [9]) came out at 3 µg/mL (≈ 9.16 µM); in series [5] (setting [10]), 3 µg/mL (≈ 9.16 µM); in series [5] (setting [11]) it was 1 µg/mL (≈ 3.05 µM); in series [5] (Standard strain ATCC 43504) it was 3 µg/mL (≈ 9.16 µM); in series [5] (Standard strain ATCC 43570) it was 1 µg/mL (≈ 3.05 µM); in series [5] (Standard strain ATCC 43629), 1 µg/mL (≈ 3.05 µM). Further, in series [3] (30 mg/kg), the “Antibody titer (average)” value is given as 0.49. Also, the “Number of Bacteria (average) (log CFU)” value in series [3] (30 mg/kg) is 6.3 log CFU. In addition, in series [3] (setting [12]), the “Number of Ulcers discovered” value is given as 5/5. Moreover, the responders at 30 mg/kg in series [3] (setting [13]) stood at 0%.
As for `CC(C)COc1ccnc(CSc2nc3ccccc3[nH]2)c1` [Comparative Example 2, 2-[(4-isobutoxy-pyridin-2-yl)methylthio]-1H-benzimidazole], the MIC turned out to be 10 µg/mL (≈ 31.9 µM) in series [5] (setting [9]); 10 µg/mL (≈ 31.9 µM) in series [5] (setting [10]); 10 µg/mL (≈ 31.9 µM) in series [5] (setting [11]); 10 µg/mL (≈ 31.9 µM) in series [5] (Standard strain ATCC 43504); 5 µg/mL (≈ 16 µM) in series [5] (Standard strain ATCC 43570); 10 µg/mL (≈ 31.9 µM) in series [5] (Standard strain ATCC 43629). In series [3] (30 mg/kg), the “Antibody titer (average)” value is 0.55. The “Number of Bacteria (average) (log CFU)” value in series [3] (30 mg/kg) stood at 5.9 log CFU. Moreover, the “Number of Ulcers discovered” value in series [3] (setting [12]) was 5/5. Moreover, in series [3] (setting [13]), the responders at 30 mg/kg was 0%.
In the case of `CCCCOc1ccnc(CSc2nc3ccccc3[nH]2)c1C` [Example 4, 2-[(4-n-butoxy-3-methylpyridin-2-yl)-methylthio]-1H-benzimidazole], the MIC in series [2] (setting [6]) was found to be 0.3 µg/mL (≈ 0.916 µM).
With `CCCCCCCCOc1ccnc(CSc2nc3ccccc3[nH]2)c1C` [Example 5, 2-[(4-n-octyloxy-3-methylpyridin-2-yl)-methylthio]-1H-benzimidazole], the MIC in series [2] (setting [6]) was found to be 0.3 µg/mL (≈ 0.782 µM).
In the case of `Cc1c(OCC(F)(F)F)ccnc1C[S+]([O-])c1nc2ccccc2[nH]1` (stereo not shown) [LAZ, Lansoprazole], the “Residual ratio at pH 2” value stood at 100% in series [1] (0 min), 0% in series [1] (30 min) and 0% in series [1] (2 hours). Also, the “Stability in acid (residual ratio at pH = 2: %)” value in series [1] is reported as 0%. In series [2] (setting [7]), the MIC worked out at 16 µg/mL (≈ 43.3 µM). Also, in series [3] (setting [8]), the responders at 30 mg/kg was determined as 0%.
Take `COc1ccc2[nH]c([S+]([O-])Cc3ncc(C)c(OC)c3C)nc2c1` (stereo not shown) [OMZ, Omeprazole]: the “Stability in acid (residual ratio at pH = 2: %)” value in series [1] came out at 0%. The MIC in series [2] (setting [7]) stood at 128 µg/mL (≈ 371 µM). Besides, in series [3] (10 mg/kg), the “Antibody titer (average)” value came to 0.52 and the “Number of Bacteria (average) (log CFU)” value worked out at 6.0 log CFU. In addition, in series [3] (10 mg/kg, two times a day for two weeks), the “Number of Ulcers discovered” value is recorded as 5/5. Further, the responders at 10 mg/kg in series [3] (Helicobacter pylori, ATCC43504, 336 h, 10 mg/kg, two times a day for two weeks, read-out: Eradication rate (%)) amounted to 0%. In addition, in series [3] (setting [8]), the responders at 30 mg/kg turned out to be 0%.
Consider `COCCCOc1ccnc(C[S+]([O-])c2nc3ccccc3[nH]2)c1C` (stereo not shown) [RAZ, Rabeprazole], for which the “Stability in acid (residual ratio at pH = 2: %)” value in series [1] turned out to be 0%. Further, in series [2] (setting [7]), the MIC was found to be 8 µg/mL (≈ 22.3 µM). For the same compound, in series [3] (setting [8]), the responders at 30 mg/kg was determined as 0%.
In the case of `COc1ccnc(CSc2nc3ccccc3[nH]2)c1C` [Reference Example 1, 2-[(4-methoxy-3-methylpyridin-2-yl)-methylthio]-1H-benzimidazole], in series [2] (setting [6]), the MIC stood at 3 µg/mL (≈ 10.5 µM).
On the same count and under the same terms, next, `CCOc1ccnc(CSc2nc3ccccc3[nH]2)c1C` [Reference Example 2, 2-[(4-ethoxy-3-methylpyridin-2-yl)-methylthio]-1H-benzimidazole]: 1 µg/mL (≈ 3.34 µM).
`CCCOc1ccnc(CSc2nc3ccccc3[nH]2)c1C` [Reference Example 3, 2-[(4-n-propoxy-3-methylpyridin-2-yl)-methylthio]-1H-benzimidazole]: in series [2] (setting [6]), the MIC worked out at 1 µg/mL (≈ 3.19 µM).
Same read-out and setting: next, `CCCCCCCCCOc1ccnc(CSc2nc3ccccc3[nH]2)c1C` [Reference Example 4, 2-[(4-n-nonyloxy-3-methylpyridin-2-yl)-methylthio]-1H-benzimidazole]: 1 µg/mL (≈ 2.52 µM); `CCCCCCCCCCOc1ccnc(CSc2nc3ccccc3[nH]2)c1C` [Reference Example 5, 2-[(4-n-decyloxy-3-methylpyridin-2-yl)-methylthio]-1H-benzimidazole]: 3 µg/mL (≈ 7.29 µM).

The values above are taken from patent publication US8778975B2, “Helicobacter pylori eradicating agent having inhibitory activity on gastric acid secretion” (Link Geonomics, Inc., priority 2006, dated 2014).
